In ChEMBL document CHEMBL1201862, “PubChem BioAssay data set” (2004):
Active and inactive are the calls of the source.

Experiments:
[1] = target: Bifunctional protein GlmU (Mycobacterium tuberculosis, UniProt P9WMN3); assay: Inhibitors of Mycobacterial Glucosamine-1-phosphate acetyl transferase (GlmU). Secondary screen.; parameters: species or system Mycobacterium tuberculosis H37Rv
[2] = target: T1, Tyrosyl-DNA phosphodiesterase 2 (Homo sapiens, UniProt O95551); assay: potency against TDP2 phosphodiesterase activity – biochemical, epi absorbance, IC50, dose response (AID 743297)
T1 sequence (O95551 whole entry): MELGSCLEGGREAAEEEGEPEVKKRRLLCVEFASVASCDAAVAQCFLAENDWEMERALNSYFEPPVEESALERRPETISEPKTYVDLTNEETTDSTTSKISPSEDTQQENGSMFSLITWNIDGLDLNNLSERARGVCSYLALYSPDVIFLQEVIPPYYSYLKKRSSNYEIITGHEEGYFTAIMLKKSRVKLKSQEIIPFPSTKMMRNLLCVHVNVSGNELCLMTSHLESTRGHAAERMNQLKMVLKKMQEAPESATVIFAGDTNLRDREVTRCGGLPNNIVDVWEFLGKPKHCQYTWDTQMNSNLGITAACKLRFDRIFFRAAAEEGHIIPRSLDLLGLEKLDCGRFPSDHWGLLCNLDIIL

[3] = target: T2, RNA-binding protein pos-1 (Caenorhabditis elegans, UniProt G5EF15); assay: disruptors of C. elegans POS-1 RNA interaction – biochemical, fluorescence polarization, dose response (AID 1964);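 further: purified POS-1 fused to maltose binding protein made in E. coli; potency of compounds blocking POS-1 binding to fluorescent RNA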
T2 sequence (G5EF15 whole entry): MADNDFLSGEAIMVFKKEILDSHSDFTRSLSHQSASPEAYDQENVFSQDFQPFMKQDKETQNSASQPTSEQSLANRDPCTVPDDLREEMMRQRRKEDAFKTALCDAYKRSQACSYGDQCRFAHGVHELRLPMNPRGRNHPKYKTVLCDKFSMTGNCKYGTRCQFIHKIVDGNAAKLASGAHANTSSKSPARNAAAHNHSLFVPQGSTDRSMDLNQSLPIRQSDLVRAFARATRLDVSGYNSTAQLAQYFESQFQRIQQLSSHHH

[4] = target: Heat shock protein HSP 90-alpha (Homo sapiens, UniProt P07900); assay: Luminescence-based dose response biochemical high throughput screening assay for inhibitors of the Heat Shock Protein 90 (HSP90). [Related pubchem assays: 1831 (Summary AID.), 1846 (Confirmation screen.), 1789 (Primary screen.)]
Ephrin type-A receptor 2 = Ephrin type-A receptor 2 (Homo sapiens, UniProt P29317); assay type: functional;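 further: EPHA2 tested as one member of a kinome-wide kinase panel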
[5] = target: Dual specificity mitogen-activated protein kinase kinase 1 (Homo sapiens, UniProt Q02750); assay: Navigating the Kinome. Panel member name: MAP2K1; assay type: functional
[6] = target: cGMP-dependent protein kinase 1 (Homo sapiens, UniProt Q13976); assay type: functional;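 further: value from a kinome panel screen with PRKG1 as the panel member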
Sequence of cGMP-dependent protein kinase 1 (Q13976 whole entry): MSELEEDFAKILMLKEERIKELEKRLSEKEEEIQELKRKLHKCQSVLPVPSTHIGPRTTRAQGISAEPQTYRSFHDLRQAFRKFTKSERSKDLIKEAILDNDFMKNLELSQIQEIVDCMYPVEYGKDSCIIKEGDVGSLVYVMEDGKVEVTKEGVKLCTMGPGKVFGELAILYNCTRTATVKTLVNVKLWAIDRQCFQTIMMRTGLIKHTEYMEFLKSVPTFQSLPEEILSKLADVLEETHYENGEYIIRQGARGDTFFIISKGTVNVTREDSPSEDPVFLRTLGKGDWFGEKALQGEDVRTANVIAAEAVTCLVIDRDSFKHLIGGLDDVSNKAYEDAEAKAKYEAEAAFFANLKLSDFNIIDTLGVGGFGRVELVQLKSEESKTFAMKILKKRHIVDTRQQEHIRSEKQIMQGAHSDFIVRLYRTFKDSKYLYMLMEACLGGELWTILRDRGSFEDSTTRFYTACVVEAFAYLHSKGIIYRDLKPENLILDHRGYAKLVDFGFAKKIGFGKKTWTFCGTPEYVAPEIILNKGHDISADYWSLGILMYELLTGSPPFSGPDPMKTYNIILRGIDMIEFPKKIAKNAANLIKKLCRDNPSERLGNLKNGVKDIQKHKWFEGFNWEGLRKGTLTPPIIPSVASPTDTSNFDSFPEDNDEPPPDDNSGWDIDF

Aurora kinase B = Aurora kinase B (Homo sapiens, UniProt Q96GD4); assay type: functional
[7] = target: Lymphokine-activated killer T-cell-originated protein kinase (Homo sapiens, UniProt Q96KB5); assay type: functional;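 further: value comes from a kinase panel screen in which TOPK was one of the panel members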
[8] = target: RAC-gamma serine/threonine-protein kinase (Homo sapiens, UniProt Q9Y243); assay type: functional
Sequence of RAC-gamma serine/threonine-protein kinase (Q9Y243 whole entry): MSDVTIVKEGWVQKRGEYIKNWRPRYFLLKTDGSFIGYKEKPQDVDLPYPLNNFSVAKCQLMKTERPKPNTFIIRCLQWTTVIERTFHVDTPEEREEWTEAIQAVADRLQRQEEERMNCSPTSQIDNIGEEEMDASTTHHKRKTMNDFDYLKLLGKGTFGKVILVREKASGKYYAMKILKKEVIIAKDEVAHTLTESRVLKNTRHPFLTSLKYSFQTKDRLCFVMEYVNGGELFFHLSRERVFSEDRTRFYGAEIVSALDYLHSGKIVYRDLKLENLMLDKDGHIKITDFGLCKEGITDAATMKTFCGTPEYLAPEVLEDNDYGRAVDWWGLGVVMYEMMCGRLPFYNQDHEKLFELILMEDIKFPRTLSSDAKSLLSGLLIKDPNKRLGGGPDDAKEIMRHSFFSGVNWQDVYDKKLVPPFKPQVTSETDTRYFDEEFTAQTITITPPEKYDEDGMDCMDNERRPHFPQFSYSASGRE

[9] = target: Serine/threonine-protein kinase pim-2 (Homo sapiens, UniProt Q9P1W9); assay type: functional;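 further: value comes from a broad kinase panel profiling study in which PIM2 was one of the panel members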
[10] = target: Mitogen-activated protein kinase 1 (Homo sapiens, UniProt P28482); assay type: functional
Sequence of Mitogen-activated protein kinase 1 (P28482 whole entry): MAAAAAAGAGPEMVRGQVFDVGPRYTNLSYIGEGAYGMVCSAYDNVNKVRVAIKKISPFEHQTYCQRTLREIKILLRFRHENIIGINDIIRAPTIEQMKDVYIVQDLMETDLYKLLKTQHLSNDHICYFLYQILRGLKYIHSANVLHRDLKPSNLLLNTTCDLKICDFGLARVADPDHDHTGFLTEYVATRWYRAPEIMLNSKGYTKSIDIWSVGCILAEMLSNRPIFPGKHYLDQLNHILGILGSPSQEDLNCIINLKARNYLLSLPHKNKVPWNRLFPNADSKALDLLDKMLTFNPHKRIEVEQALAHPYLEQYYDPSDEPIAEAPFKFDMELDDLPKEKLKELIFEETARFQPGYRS

[11] = target: Tyrosine-protein kinase JAK3 (Homo sapiens, UniProt P52333); assay type: functional
Sequence of Tyrosine-protein kinase JAK3 (P52333 whole entry): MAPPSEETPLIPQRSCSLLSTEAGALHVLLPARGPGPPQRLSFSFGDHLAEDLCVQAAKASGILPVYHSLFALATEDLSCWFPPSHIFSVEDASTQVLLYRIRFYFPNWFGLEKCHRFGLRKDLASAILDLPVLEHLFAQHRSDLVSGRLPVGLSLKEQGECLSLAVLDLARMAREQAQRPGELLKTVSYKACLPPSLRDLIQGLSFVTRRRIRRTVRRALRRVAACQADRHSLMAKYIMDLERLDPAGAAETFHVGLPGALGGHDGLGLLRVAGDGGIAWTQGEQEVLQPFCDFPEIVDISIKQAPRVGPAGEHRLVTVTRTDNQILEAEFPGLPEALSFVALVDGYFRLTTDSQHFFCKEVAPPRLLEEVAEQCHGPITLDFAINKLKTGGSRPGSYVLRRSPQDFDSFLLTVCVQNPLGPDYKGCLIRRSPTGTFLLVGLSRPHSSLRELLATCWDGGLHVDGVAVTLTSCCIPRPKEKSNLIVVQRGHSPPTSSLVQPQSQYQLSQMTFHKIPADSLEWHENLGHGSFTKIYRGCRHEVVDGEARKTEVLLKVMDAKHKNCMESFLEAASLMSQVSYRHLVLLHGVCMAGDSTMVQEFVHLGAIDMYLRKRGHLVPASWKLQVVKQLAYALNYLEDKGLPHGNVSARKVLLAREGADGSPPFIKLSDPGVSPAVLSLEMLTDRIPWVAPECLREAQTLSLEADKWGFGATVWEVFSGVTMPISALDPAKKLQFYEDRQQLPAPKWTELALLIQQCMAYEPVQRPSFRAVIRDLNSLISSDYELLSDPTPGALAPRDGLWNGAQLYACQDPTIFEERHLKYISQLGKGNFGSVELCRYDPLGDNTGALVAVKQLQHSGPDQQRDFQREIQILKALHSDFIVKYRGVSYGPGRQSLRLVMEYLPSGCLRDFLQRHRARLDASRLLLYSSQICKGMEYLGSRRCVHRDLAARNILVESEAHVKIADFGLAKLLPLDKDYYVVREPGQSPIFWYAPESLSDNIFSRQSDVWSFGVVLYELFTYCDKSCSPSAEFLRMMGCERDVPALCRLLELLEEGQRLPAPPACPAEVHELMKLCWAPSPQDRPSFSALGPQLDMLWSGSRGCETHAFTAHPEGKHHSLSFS

[12] = target: G protein-coupled receptor kinase 5 (Homo sapiens, UniProt P34947); assay: Navigating the Kinome. Panel member name: GPRK5; assay type: functional
Misshapen-like kinase 1 = Misshapen-like kinase 1 (Homo sapiens, UniProt Q8N4C8); assay type: functional;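 further: kinome panel screen with MINK as the panel member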
[13] = target: Serine/threonine-protein kinase 17A (Homo sapiens, UniProt Q9UEE5); assay type: functional
[14] = target: Glycogen synthase kinase-3 alpha (Homo sapiens, UniProt P49840); assay type: functional;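 further: GSK3A result taken from a broad kinome-wide kinase panel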
[15] = target: Receptor tyrosine-protein kinase erbB-2 (Homo sapiens, UniProt P04626); assay: Navigating the Kinome. Panel member name: ERBB2; assay type: functional
[16] = target: Calcium/calmodulin-dependent protein kinase type II subunit delta (Homo sapiens, UniProt Q13557); assay type: functional
[17] = target: Protein kinase C gamma type (Homo sapiens, UniProt P05129); assay type: functional
[18] = target: Mitogen-activated protein kinase 14 (Homo sapiens, UniProt Q16539); assay type: functional;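 further: part of a kinome-wide panel, MAPK14 entry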
[19] = target: Vascular endothelial growth factor receptor 2 (Homo sapiens, UniProt P35968); assay type: functional
[20] = target: Glycogen synthase kinase-3 beta (Homo sapiens, UniProt P49841); assay type: functional;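 further: value comes from a broad kinome profiling panel, with GSK3B as the panel member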
Sequence of Glycogen synthase kinase-3 beta (P49841 whole entry): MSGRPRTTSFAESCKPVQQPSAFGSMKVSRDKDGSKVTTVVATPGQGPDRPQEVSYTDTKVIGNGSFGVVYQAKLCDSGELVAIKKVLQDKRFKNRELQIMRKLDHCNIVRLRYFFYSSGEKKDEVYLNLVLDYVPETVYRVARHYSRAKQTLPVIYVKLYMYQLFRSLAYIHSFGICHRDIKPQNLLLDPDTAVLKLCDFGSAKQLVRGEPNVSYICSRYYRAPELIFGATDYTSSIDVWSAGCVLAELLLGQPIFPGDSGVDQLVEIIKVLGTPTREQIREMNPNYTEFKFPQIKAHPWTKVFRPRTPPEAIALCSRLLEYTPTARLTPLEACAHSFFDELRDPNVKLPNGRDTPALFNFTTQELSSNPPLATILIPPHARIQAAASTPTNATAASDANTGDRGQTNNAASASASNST

[21] = target: Ribosomal protein S6 kinase beta-1 (Homo sapiens, UniProt P23443); assay type: functional;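 further: measured as one member of a kinome-wide profiling panel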
[22] = target: Dual specificity tyrosine-phosphorylation-regulated kinase 1B (Homo sapiens, UniProt Q9Y463); assay: Navigating the Kinome. Panel member name: DYRK1B; assay type: functional
Activin receptor type-1 = Activin receptor type-1 (Homo sapiens, UniProt Q04771); assay: Navigating the Kinome. Panel member name: ACVR1; assay type: functional
Sequence of Activin receptor type-1 (Q04771 whole entry): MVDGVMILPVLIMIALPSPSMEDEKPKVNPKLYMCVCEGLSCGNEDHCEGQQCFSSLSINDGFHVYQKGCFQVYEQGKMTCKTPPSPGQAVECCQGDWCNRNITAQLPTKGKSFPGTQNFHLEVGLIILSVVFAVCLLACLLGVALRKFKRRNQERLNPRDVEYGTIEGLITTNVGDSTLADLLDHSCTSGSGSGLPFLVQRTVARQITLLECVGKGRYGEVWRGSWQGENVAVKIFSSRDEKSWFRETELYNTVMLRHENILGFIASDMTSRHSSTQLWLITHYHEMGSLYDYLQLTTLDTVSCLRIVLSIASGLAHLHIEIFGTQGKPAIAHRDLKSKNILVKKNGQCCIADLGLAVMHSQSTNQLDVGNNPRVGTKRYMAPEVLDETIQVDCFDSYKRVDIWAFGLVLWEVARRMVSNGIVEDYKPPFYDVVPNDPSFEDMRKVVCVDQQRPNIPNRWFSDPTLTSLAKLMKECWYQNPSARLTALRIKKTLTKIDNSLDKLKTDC

[23] = target: Tyrosine-protein kinase SYK (Homo sapiens, UniProt P43405); assay type: functional
[24] = target: Mitogen-activated protein kinase 9 (Homo sapiens, UniProt P45984); assay type: functional;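 further: value from a kinome panel profiling assay, MAPK9 panel entry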
[25] = target: Serine/threonine-protein kinase PLK4 (Homo sapiens, UniProt O00444); assay type: functional;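 further: PLK4 measured as one member of a kinome-wide kinase profiling panel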
[26] = target: Serine/threonine-protein kinase PLK1 (Homo sapiens, UniProt P53350); assay type: functional;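 further: PLK1 measured as one member of a kinome-wide profiling panel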
[27] = target: MAP kinase-interacting serine/threonine-protein kinase 2 (Homo sapiens, UniProt Q9HBH9); assay type: functional
[28] = target: Cyclin-dependent kinase 1 (Homo sapiens, UniProt P06493); assay type: functional;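 further: Kinome-wide panel profiling, with the target listed as panel member CDC2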
[29] = target: Serine/threonine-protein kinase D2 (Homo sapiens, UniProt Q9BZL6); assay type: functional;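 further: measured against PRKD2 as one member of a kinome-wide kinase profiling panel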
[30] = target: Tyrosine-protein kinase Srms (Homo sapiens, UniProt Q9H3Y6); assay type: functional;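 further: SRMS measured as one member of a kinome-wide kinase profiling panel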
Sequence of Tyrosine-protein kinase Srms (Q9H3Y6 whole entry): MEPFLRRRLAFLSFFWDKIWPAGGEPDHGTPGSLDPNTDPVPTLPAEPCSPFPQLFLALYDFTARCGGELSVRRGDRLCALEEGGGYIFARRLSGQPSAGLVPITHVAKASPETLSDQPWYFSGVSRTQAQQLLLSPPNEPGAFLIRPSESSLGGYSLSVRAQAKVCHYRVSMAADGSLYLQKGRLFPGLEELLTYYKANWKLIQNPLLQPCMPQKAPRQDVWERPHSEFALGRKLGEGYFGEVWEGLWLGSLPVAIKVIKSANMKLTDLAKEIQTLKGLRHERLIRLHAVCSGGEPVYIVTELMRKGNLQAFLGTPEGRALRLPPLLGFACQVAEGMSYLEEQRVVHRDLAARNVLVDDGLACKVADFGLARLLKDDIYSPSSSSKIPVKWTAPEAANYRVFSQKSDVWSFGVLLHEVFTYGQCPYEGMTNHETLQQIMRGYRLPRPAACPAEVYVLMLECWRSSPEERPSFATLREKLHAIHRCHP

[31] = target: Macrophage colony-stimulating factor 1 receptor (Homo sapiens, UniProt P07333); assay type: functional;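 further: value comes from the Navigating the Kinome screening panel, CSF1R member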
[32] = target: Rho-associated protein kinase 1 (Homo sapiens, UniProt Q13464); assay type: functional;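 further: measured within a broad kinome-wide panel profiling many kinases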

With Cc1ccc(/C=C2/C(=O)c3ccc(C(=O)O)cc3C2=O)o1 the IC50 [1] was 174 µM (active), the IC50 [2] was > 128 µM (inactive) and the EC50 [3] was 87.7 µM (active). For the same compound, the IC50 [4] was 1.65 µM (active).
In the case of Clc1cc(NC2CCCCC2)nc(-c2c[nH]c3ncccc23)n1, the Ki (Ephrin type-A receptor 2) is reported as > 3.16 µM (inactive), the Ki [5] is reported as 251 nM (active) and the Ki [6] is reported as 501 nM (active). For the same compound, the Ki (Aurora kinase B) was 1 µM (active), the Ki [7] was 6.31 µM (active) and the Ki [8] was > 10 µM (inactive). The Ki [9] was > 2 µM (inactive), the Ki [10] was 7.94 µM (active) and the Ki [11] was > 2 µM (inactive). For the same compound, the Ki [12] was > 3.98 µM (inactive), the Ki (Misshapen-like kinase 1) was 6.31 nM (active) and the Ki [13] was > 2.51 µM (inactive). The Ki [14] was 1.26 µM (active), the Ki [15] was > 1.58 µM (inactive) and the Ki [16] was > 3.16 µM (inactive). For the same compound, the Ki [17] was 501 nM (active), the Ki [18] was > 3.98 µM (inactive) and the Ki [19] was > 2 µM (inactive). The Ki [20] was 1.26 µM (active), the Ki [21] was 501 nM (active) and the Ki [22] was 501 nM (active). For the same compound, the Ki (Activin receptor type-1) was > 3.98 µM (inactive), the Ki [23] was 316 nM (active) and the Ki [24] was 3.16 µM (active). The Ki [25] was > 3.98 µM (inactive), the Ki [26] was 501 nM (active) and the Ki [27] was 1.26 µM (active). The Ki [28] was 3.16 µM (active), the Ki [29] was 1.58 µM (active) and the Ki [30] was > 1.58 µM (inactive). The Ki [31] was > 1.58 µM (inactive) and the Ki [32] was > 100 nM (inactive).
